Experimental data reported in ChEMBL document CHEMBL2157926, “Peptoid ligands that bind selectively to phosphoproteins” (Bioorg Med Chem Lett, 2011).
The source made the active and inactive calls. No cut-off for these calls is given here. Non-standard residues stand in square brackets, D forms with d. Residues, ends and D or L forms follow the SMILES beside them. Gly(N-(CH2)3N-pyrrolidone) = O=C(O)CNCCCN1CCCC1=O; N(4-hydroxyphenethyl)Gly = O=C(O)CNCCc1ccc(O)cc1; NFurfurylGly = O=C(O)CNCc1ccco1; Nleu = CC(C)CNCC(=O)O; Nlys = NCCCCNCC(=O)O; Nme = COCCNCC(=O)O

Experiments:
[1] = target: T1, Bromodomain-containing protein 4 (Homo sapiens, UniProt O60885); experiment: Binding affinity to modified phosphorylated human BRD4 phosphorylation-dependent interaction domain (598-785) expressed in Sf9 cells assessed as red fluorescence by SDS-PAGE method based one-bead binding assay
[2] = target: T1, Bromodomain-containing protein 4; experiment: Binding affinity to modified phosphorylated human BRD4 phosphorylation-dependent interaction domain (598-785) using fluorescein 5-maleimide by fluorescence polarization method
[3] = target: T1, Bromodomain-containing protein 4; experiment: Binding affinity to Flag tagged phosphorylated human BRD4 phosphorylation-dependent interaction domain (287-530) assessed as formation of cross-linking products at 0.5 uM in presence of sodium periodate using Neutravedin HRP by SDS-PAGE method
[4] = target: T1, Bromodomain-containing protein 4; experiment: Binding affinity to Flag tagged phosphorylated human BRD4 phosphorylation-dependent interaction domain (287-530) assessed as formation of cross-linking products at 0.1 uM in presence of sodium periodate using Neutravedin HRP by SDS-PAGE method
[5] = target: T1, Bromodomain-containing protein 4; experiment: Binding affinity to Flag tagged phosphorylated human BRD4 phosphorylation-dependent interaction domain (287-530) assessed as formation of cross-linking products at 0.5 uM in absence of sodium periodate using Neutravedin HRP by SDS-PAGE method
[6] = target: T1, Bromodomain-containing protein 4; experiment: Binding affinity to modified phosphorylated human BRD4 phosphorylation-dependent interaction domain (287-530) expressed in Sf9 cells assessed as formation of cross-linking products in presence of sodium periodate using Neutravedin HRP by Western blot method
[7] = target: T1, Bromodomain-containing protein 4; experiment: Binding affinity to modified phosphorylated human BRD4 phosphorylation-dependent interaction domain (287-530) expressed in Sf9 cells assessed as formation of cross-linking products in absence of sodium periodate using Neutravedin HRP by Western blot method

| Activity [1] | Kd [2] [µM] | Activity [3] | Activity [4] | Activity [5] | Activity [6] | Activity [7] | SMILES |
| --- | --- | --- | --- | --- | --- | --- | --- |
| Active |  |  |  |  |  |  | CC(C)CN(CC(=O)N(CCCCN)CC(=O)N(CC(=O)N(CCCCN)CC(=O)N(CCCCN)CC(N)=O)Cc1ccco1)C(=O)CNCCCN1CCCC1=O (H-[Gly(N-(CH2)3N-pyrrolidone)][Nleu][Nlys][NFurfurylGly][Nlys][Nlys]-NH2) |
| inactive | 50 |  |  |  |  |  | COCCN(CC(=O)N(CCCCN)CC(=O)N(CCCCN)CC(N)=O)C(=O)CN(CCCCN)C(=O)CN(CCc1ccc(O)cc1)C(=O)CNCC(C)C (H-[Nleu][N(4-hydroxyphenethyl)Gly][Nlys][Nme][Nlys][Nlys]-NH2) |
|  |  | Active | inactive | inactive | Active | inactive | COCCN(CC(=O)N(CCCCN)CC(=O)N(CCCCN)CC(=O)NC(Cc1ccc(O)c(O)c1)C(=O)N[C@H](CCC(=O)NCCCOCCOCCOCCCNC(=O)CCCC[C@@H]1SC[C@@H]2NC(=O)N[C@@H]21)C(N)=O)C(=O)CN(CCCCN)C(=O)CN(CCc1ccc(O)cc1)C(=O)CNCC(C)C (stereo partly drawn) |
